Consider one compound from PubChem BioAssay AID1615 (Sanford-Burnham Center for Chemical Genomics, 2009).

What is called solubility is the concentration that dissolves in the medium under given conditions.

The structures appear in SMILES notation. Values after ≈ are worked out from the molar mass of the structure shown.

For the data set, the system named is aqueous buffer solubility, UV absorbance, 18 h equilibrium. In words: aqueous buffer solubility of compounds, late-stage follow-up, ADME assay, biophysical, UV absorbance, pH 5.0, 6.2, 7.4 (AID 1615). To be noted: at 300 µM, stronger effect = higher value.

Consider `C=CCn1c(SCC(=O)c2ccc(O)c(O)c2)nnc1-c1ccccc1OC`, for which the solubility is 18 µg/mL (≈ 45.3 µM). Moreover, the solubility (measured here: solubility at pH 5.0) is 8.4 µg/mL (≈ 21.1 µM). In addition, the solubility (measured here: solubility at pH 6.2) was 8.4 µg/mL (≈ 21.1 µM).
